Data set [1] relates to Rattus norvegicus. Briefly: Cmax in Wistar rat assessed as [3-(3-Ethyl-ureido)-5-(2-methyl-pyridin-4-yl)-isoquinolin-8-ylmethyl]-carbamic Acid Methyl Ester at […], po administered as suspension up to 24 hrs by LC-MS/MS analysis. It is filed as ADME, organism-based. The conditions noted are these: in vivo.
Data set [2] relates to Rattus norvegicus. Briefly: Oral bioavailability in Wistar rat assessed as [3-(3-Ethyl-ureido)-5-(2-methyl-pyridin-4-yl)-isoquinolin-8-ylmethyl]-carbamic Acid Methyl Ester at […] administered as suspension up to 24 hrs by LC-MS/MS analysis. It is filed as ADME, organism-based. Particulars: in vivo.
The subject of data set [3] is Rattus norvegicus. Briefly: AUC in Wistar rat at […], po administered as suspension up to 24 hrs by LC-MS/MS analysis. The data set is classed as ADME, organism-based. The conditions noted are these: in vivo, BLD = below limit of detection.
Data set [4] is described as follows: Stability of the compound at room temperature for weeks. The data set is classed as physicochemical.
A short description of data set [5]: Clearance in Wistar rat at 0.64 mg/kg, iv administered as solution up to 24 hrs by LC-MS/MS analysis. It is filed as ADME, organism-based. Particulars: in vivo.
The subject of data set [6] is Rattus norvegicus. Briefly: AUC in Wistar rat assessed as [3-(3-Ethyl-ureido)-5-(2-methyl-pyridin-4-yl)-isoquinolin-8-ylmethyl]-carbamic Acid Methyl Ester at 0.64 mg/kg, iv administered as solution up to 24 hrs by LC-MS/MS analysis. Details: time < 24 hr, dose 0.64 mg/kg, route intravenous. The conditions noted are these: in vivo. It is filed as ADME, organism-based.

For data set [7], the system named is Staphylococcus aureus. Briefly: Antibacterial activity against methicillin-sensitive Staphylococcus aureus A-1178 infected in neutropenic mouse assessed as change in bacterial burden in thighs at 38.4 mg/kg, iv administered every 2.75 hrs for 2 times measured 6.5 hrs post infection. The data set is classed as functional.
The nature of data set [8]: Volume of distribution in steady state in Wistar rat at 0.64 mg/kg, iv administered as solution up to 24 hrs by LC-MS/MS analysis. The data set is classed as ADME, organism-based. Particulars: in vivo, read-out: Vdss.
Data set [9] can be described thus: Half life in mouse blood at 1 uM by LC-MS/MS analysis. It is filed as ADME, tissue-based.
The subject of data set [10] is Rattus norvegicus. The data set can be described thus: AUC in Wistar rat assessed as [3-(3-Ethyl-ureido)-5-(2-methyl-pyridin-4-yl)-isoquinolin-8-ylmethyl]-carbamic Acid Methyl Ester at […], po administered as suspension up to 24 hrs by LC-MS/MS analysis. The data set is classed as ADME, organism-based. The conditions noted are these: in vivo.
In data set [11] the test system is Staphylococcus aureus. The data set can be described thus: Antibacterial activity against methicillin-sensitive Staphylococcus aureus A-1178 infected in neutropenic mouse assessed as change in bacterial burden in thighs at […], iv administered every 2.75 hrs for 2 times measured 6.5 hrs post infection. The data set is classed as functional.
Data set [12] is described as follows: Half life in Wistar rat at 0.64 mg/kg, iv administered as solution up to 24 hrs by LC-MS/MS analysis. The data set is classed as ADME, organism-based. Particulars: in vivo.
Data set [13] in a line: AUC in Wistar rat at 0.64 mg/kg, iv administered as solution up to 24 hrs by LC-MS/MS analysis. Particulars: in vivo. It is filed as ADME, organism-based. Also on record: time < 24 hr, dose 0.64 mg/kg, route intravenous.
Data set [14] concerns Rattus norvegicus. Briefly: Tmax in Wistar rat assessed as [3-(3-Ethyl-ureido)-5-(2-methyl-pyridin-4-yl)-isoquinolin-8-ylmethyl]-carbamic Acid Methyl Ester at […], po administered as suspension up to 24 hrs by LC-MS/MS analysis. It is filed as ADME, organism-based. The conditions noted are these: in vivo.
The test system of data set [15] is Rattus norvegicus. The data set can be described thus: Volume of distribution in steady state in Wistar rat assessed as [3-(3-Ethyl-ureido)-5-(2-methyl-pyridin-4-yl)-isoquinolin-8-ylmethyl]-carbamic Acid Methyl Ester at 0.64 mg/kg, iv administered as solution up to 24 hrs by LC-MS/MS analysis. The conditions noted are these: in vivo. The data set is classed as ADME, organism-based.

A short description of data set [16]: Half life in rat blood at 1 uM by LC-MS/MS analysis. The data set is classed as ADME, tissue-based.
The nature of data set [17]: Solubility of compound in water at pH 6.3. The data set is classed as physicochemical.
Data set [18] is described as follows: Half life in human blood at 1 uM by LC-MS/MS analysis. The data set is classed as ADME, tissue-based.
Data set [19] relates to Rattus norvegicus. Briefly: Half life in Wistar rat assessed as [3-(3-Ethyl-ureido)-5-(2-methyl-pyridin-4-yl)-isoquinolin-8-ylmethyl]-carbamic Acid Methyl Ester at 0.64 mg/kg, iv administered as solution up to 24 hrs by LC-MS/MS analysis. It is filed as ADME, organism-based. Particulars: in vivo.

Data on one compound can be found in ChEMBL document CHEMBL4049438, “Discovery and Optimization of Isoquinoline Ethyl Ureas as Antibacterial Agents” (J Med Chem, 2017).

≈ marks a conversion by molar mass, not a printed value.

The term Cmax denotes the peak of the concentration-time curve. The term AUC denotes concentration integrated over time. The clearance is the volume of plasma or blood freed of the substance per unit of time. By half-life is commonly meant how long it takes for the measured level to halve. In general, Tmax refers to the time at which the peak concentration occurs. What is called Vdss is the apparent volume that relates the amount in the body to the concentration in plasma or blood. A word on the solubility: it is how much of the substance goes into solution per volume. A lower solubility goes with little dissolved substance. For the compound `CCNC(=O)Nc1cc2c(-c3cc[n+](COP(=O)([O-])O)c(C)c3)ccc(CNC(=O)OC)c2cn1`, in [1], the Cmax was found to be 250 ng/mL. The F in data set [2] was 30%. In addition, the AUC result in data set [3] is “Bld”; in [6] it was 301 ng·h/mL; in data set [10] it was 310 ng·h/mL. Moreover, in [4], the Stability result is listed as “Stable”. This compound came in with a clearance in [5] of 130 mL/min/kg. For the same compound, the Activity in data set [7] was below -4.8 deltalog10CFU; in [11], -3.6 deltalog10CFU. The Vd in [8] is 0.5 L/kg. Further, the half-life at 1 µM is 96 min in [9], 60 min in data set [16] and 18 min in [18]. This compound gave a half-life in data set [12] of 12 min. The same compound registered an AUC at 24 h in data set [13] of 79 ng·h/mL. Moreover, the Tmax in [14] amounted to 30 min. In addition, the Vdss in data set [15] came to 1.1 L/kg. For the same compound, in data set [17], the solubility came to 12.7 mg/mL (≈ 25.2 mM). The t1/2 in [19] came to 48 min.
